# Assay results reported in ChEMBL document CHEMBL1127794, “Structure-activity relationships of 1,3-dialkylxanthine derivatives at rat A3 adenosine receptors” (J Med Chem, 1994).
# Key:
# [1] = target: T1, Adenosine receptor A3 (Rattus norvegicus) (UniProt P28647); assay: Tested for the binding affinity, for displacement of [125I]AB-MECA in membranes of CHO cells stably transfected with the rat A3-cDNA at the 3*10e-5 concentration (M); format: cell membranes
# T1 sequence (whole entry): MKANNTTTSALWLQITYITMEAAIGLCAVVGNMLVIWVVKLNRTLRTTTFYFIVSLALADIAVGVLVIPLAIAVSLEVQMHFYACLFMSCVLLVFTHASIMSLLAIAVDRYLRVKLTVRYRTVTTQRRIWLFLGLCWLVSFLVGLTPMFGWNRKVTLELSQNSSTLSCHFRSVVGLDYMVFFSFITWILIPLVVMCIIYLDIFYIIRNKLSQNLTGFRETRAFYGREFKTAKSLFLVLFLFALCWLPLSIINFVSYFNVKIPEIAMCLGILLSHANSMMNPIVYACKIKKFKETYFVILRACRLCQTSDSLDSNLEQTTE
# Adenosine receptor A3 = target: T2, Adenosine receptor A3 (Rattus norvegicus, UniProt P28647); assay: Displacement of [125I]AB-MECA from membranes of CHO cells stably transfected with the rat adenosine A3 receptor cDNA; format: cell membranes
# T2 sequence (P28647 whole entry): T1 sequence (whole entry)
# [2] = target: Adenosine receptors; A1 & A3 (Rattus norvegicus) (UniProt P25099+P28647); assay: Ratio of selectivity for A3 and A1 receptors at rat brain
# Adenosine receptor A1 = target: T3, Adenosine receptor A1 (Rattus norvegicus, UniProt P25099)
# T3 sequence (P25099 whole entry): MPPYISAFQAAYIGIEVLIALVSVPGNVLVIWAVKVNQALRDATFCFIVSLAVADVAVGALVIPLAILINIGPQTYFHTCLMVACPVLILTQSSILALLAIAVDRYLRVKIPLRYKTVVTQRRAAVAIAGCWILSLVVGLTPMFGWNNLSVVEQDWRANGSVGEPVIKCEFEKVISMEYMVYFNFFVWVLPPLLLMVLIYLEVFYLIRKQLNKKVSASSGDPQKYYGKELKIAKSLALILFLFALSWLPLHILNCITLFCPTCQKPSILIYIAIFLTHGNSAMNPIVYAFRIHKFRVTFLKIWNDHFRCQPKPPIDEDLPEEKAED
# Description: Displacement of [3H]PIA from adenosine A1 receptors of rat brain membrane
# Adenosine receptor A2a = Adenosine receptor A2a (Rattus norvegicus, UniProt P30543)
# Description: Displacement of [3H]-CGS- 21680 from adenosine A2a receptors of rat striatal membrane
# [3] = target: Adenosine receptor A2a (Rattus norvegicus) (UniProt P30543); assay: Tested for the binding affinity, for displacement of [3H]-CGS- 21680 in A2a receptors of rat striatal membrane at 10e-4 concentration (M)
# [4] = target: T4, Adenosine receptor A1 (Rattus norvegicus) (UniProt P25099); assay: Tested for the binding affinity, for displacement of [3H]PIA in A1 receptors of rat brain membrane at 10e-4 concentration (M); format: cell membranes
# T4 sequence (whole entry): T3 sequence (P25099 whole entry)
# [5] = target: T1, Adenosine receptor A3 (Rattus norvegicus); assay: Tested for the binding affinity, for displacement of [125I]AB-MECA in membranes of CHO cells stably transfected with the rat A3-cDNA at the 10e-5 concentration (M); format: cell membranes
# [6] = target: Adenosine receptor A2a (Rattus norvegicus) (UniProt P30543); assay: Tested for the binding affinity, for displacement of [3H]-CGS- 21680 in A2a receptors of rat striatal membrane at 10e-5 concentration (M)
# [7] = target: T1, Adenosine receptor A3 (Rattus norvegicus); assay: Tested for the binding affinity, for displacement of [125I]AB-MECA in membranes of CHO cells stably transfected with the rat A3-cDNA at the 10e-4 concentration (M); format: cell membranes
# Chain of Adenosine receptor A2a (Rattus norvegicus) (P30543 whole entry): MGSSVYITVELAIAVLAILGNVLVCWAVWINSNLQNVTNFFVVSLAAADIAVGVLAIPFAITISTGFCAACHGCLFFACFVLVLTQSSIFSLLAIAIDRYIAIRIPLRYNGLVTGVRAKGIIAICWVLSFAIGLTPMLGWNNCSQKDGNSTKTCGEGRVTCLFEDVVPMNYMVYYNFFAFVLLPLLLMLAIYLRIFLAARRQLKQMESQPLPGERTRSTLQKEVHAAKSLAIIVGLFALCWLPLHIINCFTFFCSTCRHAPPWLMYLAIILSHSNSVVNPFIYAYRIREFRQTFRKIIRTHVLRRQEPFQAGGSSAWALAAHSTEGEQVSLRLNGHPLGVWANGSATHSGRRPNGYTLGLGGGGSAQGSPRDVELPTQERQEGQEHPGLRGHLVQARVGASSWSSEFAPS
# Chain of Adenosine receptor A2a (P30543 whole entry): as above
SMILES,Ki (Adenosine receptor A3) [µM],Ratio [2],Ki (Adenosine receptor A1) [µM],Ki (Adenosine receptor A2a) [µM],other results
CCCCn1c(=O)c2nc(CCCCC(=O)O)[nH]c2n(CCCC)c1=O,,,,,inhibition [1]: 13%
CCCCn1c(=O)c2nc(/C=C/C(=O)O)[nH]c2n(CCCC)c1=O,73.7,22,3.37,16.5,
Cn1c(=O)c2nc(CCCC(=O)O)[nH]c2n(C)c1=O,,< 1,,,inhibition [3]: 26%; inhibition [4]: 0%
Cn1c(=O)c2c(nc(/C=C/c3cccc(Cl)c3)n2C)n(C)c1=O,,,,,inhibition [5]: 4.2%
O=c1c2[nH]cnc2n(Cc2ccccc2)c(=O)n1Cc1ccccc1,,> 10,,,inhibition [6]: 3.6%; inhibition [5]: 20.3%
CCCCn1c(=O)c2c(nc(/C=C/C(=O)OC)n2C)n(CCCC)c1=O,,,0.793,5.85,
Cn1c(=O)c2c(nc(/C=C/c3cccc(NC(=O)CCCCC(=O)O)c3)n2C)n(C)c1=O,234,36,6.51,0.00722,
CCCn1c(=O)c2[nH]c(-c3ccc(OCC(=O)NCCNC(=O)CNCC(=O)O)cc3)nc2n(CCC)c1=O,98,,0.036,0.157,
CCCn1c(=O)c2nc(-c3ccc(C(=O)O)cc3)[nH]c2n(CCC)c1=O,45.1,230,,0.637,
Cn1c(=O)c2nc(CCCC(=O)O)[nH]c2n(C)c1=S,9.36,1.6,5.7,67.8,
CCCCn1c(=O)c2nc(CCC(=O)O)[nH]c2n(CCCC)c1=O,129,18,7.11,71.7,
CCCn1c(=O)c2[nH]c(-c3ccc(S(=O)(=O)O)cc3)nc2n(CCC)c1=O,90.1,,,,
Cn1c(=O)c2c(nc(/C=C/c3cccc(NC(=O)CCC(=O)O)c3)n2C)n(C)c1=O,189,9.2,20.5,0.0129,
CCCn1c(=O)c2nc(-c3ccc(OCC(=O)O)cc3)[nH]c2n(Cc2ccc(N)c(I)c2)c1=O,1.17,32,0.037,0.7,
CCCn1c(=O)c2nc(-c3ccc(OCC(=O)O)cc3)[nH]c2n(CCC)c1=S,,126,,,
CCCCn1c(=O)c2c(nc(/C=C/C(=O)O)n2C)n(CCCC)c1=O,127,21,5.91,23.2,
Cn1c(=O)c2c(nc(/C=C/c3cccc(NC(=O)CCCC(=O)O)c3)n2C)n(C)c1=O,289,13,22.3,0.0099,
CCCCn1c(=O)c2nc[nH]c2n(CCCC)c1=O,,290,,,
Cn1c(=O)c2c(nc(/C=C/C(=O)O)n2C)n(C)c1=O,130,< 1,,,
CCCn1c(=O)c2nc(-c3ccc(OCC(=O)NCCNC(=O)CNCC(=O)O)cc3)[nH]c2n(CCC)c1=O,,2700,,,

SMILES,Ki (Adenosine receptor A3) [µM],Ratio [2],Ki (Adenosine receptor A1) [µM],Ki (Adenosine receptor A2a) [µM],other results
CCCn1c(=O)c2nc(-c3ccc(OCC(=O)NCCNC(=O)CN(CC(=O)O)C(=O)OCC4c5ccccc5-c5ccccc54)cc3)[nH]c2n(CCC)c1=O,21.7,1100,,,
CCCn1c(=O)c2nc(-c3ccc(/C=C/C(=O)O)cc3)[nH]c2n(CCC)c1=O,,,,0.8,
C=CCn1c(=O)c2nc(-c3ccc(OCC(=O)O)cc3)[nH]c2n(CC=C)c1=O,,230,,,
CCCCn1c(=O)c2nc(CCCC(=O)O)[nH]c2n(CCCC)c1=O,133,9.4,,113,
CCCCn1c(=O)c2nc[nH]c2n(Cc2ccccc2)c1=O,74.2,110,0.668,1.2,
Cn1c(=O)c2[nH]c(CCCC(=O)O)nc2n(C)c1=O,93.4,,,,
CCCCn1c(=O)c2[nH]c(CCCCC(=O)O)nc2n(CCCC)c1=O,,,5.27,20,
Cn1c(=O)c2c(ncn2Cc2ccccc2)n(C)c1=O,,> 10,,46,inhibition [7]: 29.7%
CCCn1c(=O)c2nc(-c3ccc(OCC(=O)O)cc3)[nH]c2n(CCC)c1=O,,1300,,,
CCCn1c(=O)c2[nH]c(-c3ccc(OCC(=O)O)cc3)nc2n(CCC)c1=S,6.77,,,0.226,
CCCCn1c(=O)c2nc(-c3ccc(OCC(=O)O)cc3)[nH]c2n(CCCC)c1=O,,640,,,
CCCCn1c(=O)c2[nH]cnc2n(CCCC)c1=O,,,0.5,29.3,
CCCn1c(=O)c2nc(-c3ccc(S(=O)(=O)O)cc3)[nH]c2n(CCC)c1=O,,640,,,
CCCCCCn1c(=O)c2nc[nH]c2n(CCCCCC)c1=O,,> 10,,,inhibition [6]: 14.3%; inhibition [5]: 9.2%
Cn1c(=O)c2c(ncn2C)n(C)c1=O,,,,,inhibition [7]: 30.1%
CCCn1c(=O)c2nc(-c3ccc(OCC(=O)NCCNC(=O)CCC(=O)O)cc3)[nH]c2n(CCC)c1=O,40.6,520,0.078,0.252,
CCCn1c(=O)c2nc(-c3ccc(OCC(=O)NCC(=O)O)cc3)[nH]c2n(CCC)c1=O,58.5,800,0.073,0.455,
CCCn1c(=O)c2nc(-c3ccc(OCC(=O)NCCNC(=O)CN(CC(=O)O)C(=O)CCC(=O)O)cc3)[nH]c2n(CCC)c1=O,99.9,35,2.86,9.22,
"CCCn1c(=O)c2[nH]c(C3CCCC3)nc2n(CCC)c1=O [1,3-DIPROPYL-8-CYCLOPENTYLXANTHINE [DPCPX]]",5.29,,,,
CCCn1c(=O)c2[nH]c(-c3ccc(OCC(=O)NCCN)cc3)nc2n(CCC)c1=O [XANTHINE AMINE CONGENER],29,,,,
